Laboratory results: US9650339B2, “Inhibitors of histone demethylases” (Gilead Sciences, Inc., priority 2013, dated 2017)

Tests used:
Assay type in all cases: biochemical
KDM3A (JMJD1A) = target: T1, KDM3A (JMJD1A) (Homo sapiens, UniProt Q9Y4C1); test: Histone lysine demethylase AlphaLISA assay, KDM3A; details: read-out: KDM3 A HDME Inhibition IC50
T1 construct: 2-end; purchased BPS Bioscience, US; host or cells: Bac (baculovirus system)
T1 sequence (Q9Y4C1 2-1321 limits assumed): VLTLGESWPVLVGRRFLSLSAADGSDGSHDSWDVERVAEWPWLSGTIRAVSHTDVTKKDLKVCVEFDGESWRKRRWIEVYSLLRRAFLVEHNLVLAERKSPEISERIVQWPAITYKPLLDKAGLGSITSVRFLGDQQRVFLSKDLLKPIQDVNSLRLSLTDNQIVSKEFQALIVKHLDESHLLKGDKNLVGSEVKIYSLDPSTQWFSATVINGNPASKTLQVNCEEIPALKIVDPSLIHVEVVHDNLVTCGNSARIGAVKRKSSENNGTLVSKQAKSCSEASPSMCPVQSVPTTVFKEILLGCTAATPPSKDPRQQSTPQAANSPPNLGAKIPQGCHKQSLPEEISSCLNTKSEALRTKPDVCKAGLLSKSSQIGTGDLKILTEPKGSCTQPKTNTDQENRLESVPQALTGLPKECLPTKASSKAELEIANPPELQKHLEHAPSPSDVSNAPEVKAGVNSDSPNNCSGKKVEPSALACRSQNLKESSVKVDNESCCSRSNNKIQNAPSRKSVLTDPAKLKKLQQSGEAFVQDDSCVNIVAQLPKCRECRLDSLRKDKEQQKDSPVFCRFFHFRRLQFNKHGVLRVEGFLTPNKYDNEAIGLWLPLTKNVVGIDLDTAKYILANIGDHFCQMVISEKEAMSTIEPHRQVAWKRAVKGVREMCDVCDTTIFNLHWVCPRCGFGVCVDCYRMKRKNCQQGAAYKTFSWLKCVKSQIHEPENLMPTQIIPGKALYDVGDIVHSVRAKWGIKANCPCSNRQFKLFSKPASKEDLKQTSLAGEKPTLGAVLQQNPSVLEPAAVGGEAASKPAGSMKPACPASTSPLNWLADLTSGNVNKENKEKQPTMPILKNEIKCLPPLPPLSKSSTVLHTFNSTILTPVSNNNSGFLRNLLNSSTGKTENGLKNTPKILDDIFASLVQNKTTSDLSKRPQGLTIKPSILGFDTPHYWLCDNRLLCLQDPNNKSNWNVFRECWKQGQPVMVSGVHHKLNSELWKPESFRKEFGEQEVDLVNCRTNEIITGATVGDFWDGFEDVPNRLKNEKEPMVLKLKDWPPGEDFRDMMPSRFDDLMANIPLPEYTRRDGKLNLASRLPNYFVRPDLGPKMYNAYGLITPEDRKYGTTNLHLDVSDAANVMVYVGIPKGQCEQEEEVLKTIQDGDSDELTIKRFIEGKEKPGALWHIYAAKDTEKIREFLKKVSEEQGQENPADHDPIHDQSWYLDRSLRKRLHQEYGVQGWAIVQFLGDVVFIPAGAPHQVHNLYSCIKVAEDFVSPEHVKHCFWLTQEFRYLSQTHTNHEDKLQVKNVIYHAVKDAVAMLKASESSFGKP
Summary of the method: (§1)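 Steps: enzyme equilibrated 10 min in buffer; compounds in 3% DMSO solution added, 10 min; substrate mix added (peptide, 25 μM L-Asc, 10 μM α-KG), room temperature; acceptor beads, then streptavidin donor beads, dark incubations; plate read.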

KDM5C (JARID1C) = target: T2, KDM5C (JARID1C) (Homo sapiens, UniProt P41229); test: Histone lysine demethylase AlphaLISA assay, KDM5C; details: read-out: KDM5C HDME Inhibition IC50
T2 construct: 2-1560; purchased BPS; host or cells: Bac (baculovirus system)
T2 sequence (P41229 2-1560): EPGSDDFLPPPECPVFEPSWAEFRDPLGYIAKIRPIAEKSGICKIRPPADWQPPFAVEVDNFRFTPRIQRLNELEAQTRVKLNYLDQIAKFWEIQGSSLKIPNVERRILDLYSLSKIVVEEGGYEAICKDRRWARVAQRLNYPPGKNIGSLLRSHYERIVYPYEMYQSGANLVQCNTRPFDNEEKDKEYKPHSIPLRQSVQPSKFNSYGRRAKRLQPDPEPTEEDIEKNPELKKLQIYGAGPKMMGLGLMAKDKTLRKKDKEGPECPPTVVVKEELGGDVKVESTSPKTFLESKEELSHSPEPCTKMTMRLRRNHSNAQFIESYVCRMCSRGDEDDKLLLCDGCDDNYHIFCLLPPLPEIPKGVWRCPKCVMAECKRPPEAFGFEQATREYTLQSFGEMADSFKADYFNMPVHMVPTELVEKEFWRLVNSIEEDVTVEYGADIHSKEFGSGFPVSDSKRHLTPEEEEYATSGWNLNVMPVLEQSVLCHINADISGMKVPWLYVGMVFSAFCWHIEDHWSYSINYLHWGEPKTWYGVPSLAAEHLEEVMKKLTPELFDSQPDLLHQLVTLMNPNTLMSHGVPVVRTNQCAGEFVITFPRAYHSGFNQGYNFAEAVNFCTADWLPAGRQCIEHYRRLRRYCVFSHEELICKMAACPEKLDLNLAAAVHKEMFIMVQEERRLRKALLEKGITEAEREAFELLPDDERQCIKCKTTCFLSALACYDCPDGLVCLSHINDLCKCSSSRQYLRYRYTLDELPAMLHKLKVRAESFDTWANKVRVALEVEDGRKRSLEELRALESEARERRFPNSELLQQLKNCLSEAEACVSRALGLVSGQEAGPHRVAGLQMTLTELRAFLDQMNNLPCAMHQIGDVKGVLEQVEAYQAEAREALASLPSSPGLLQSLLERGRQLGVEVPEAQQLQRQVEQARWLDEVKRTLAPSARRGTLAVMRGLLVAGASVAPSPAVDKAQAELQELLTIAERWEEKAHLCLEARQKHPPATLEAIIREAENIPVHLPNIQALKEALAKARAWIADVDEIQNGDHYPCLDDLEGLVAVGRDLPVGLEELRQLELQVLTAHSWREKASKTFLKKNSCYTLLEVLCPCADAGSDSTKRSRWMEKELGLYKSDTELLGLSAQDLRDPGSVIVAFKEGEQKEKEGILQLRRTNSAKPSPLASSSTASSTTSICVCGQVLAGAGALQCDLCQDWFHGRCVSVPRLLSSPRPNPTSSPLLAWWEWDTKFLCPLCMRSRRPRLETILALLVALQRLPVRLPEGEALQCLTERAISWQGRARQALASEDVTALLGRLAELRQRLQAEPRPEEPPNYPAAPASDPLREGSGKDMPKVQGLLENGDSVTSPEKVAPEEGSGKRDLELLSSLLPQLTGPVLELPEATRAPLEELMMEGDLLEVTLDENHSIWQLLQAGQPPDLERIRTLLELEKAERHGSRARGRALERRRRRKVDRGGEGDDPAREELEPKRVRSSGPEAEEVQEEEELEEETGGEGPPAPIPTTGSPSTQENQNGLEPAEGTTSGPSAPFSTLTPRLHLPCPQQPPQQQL
Summary of the method: as §1

KDM5B (PLU-1) = target: T3, KDM5B (PLU-1) (Homo sapiens, UniProt Q9UGL1); test: Histone lysine demethylase AlphaLISA assay, KDM5B; details: read-out: KDM5B HDME Inhibition IC50
T3 sequence (Q9UGL1 1-809): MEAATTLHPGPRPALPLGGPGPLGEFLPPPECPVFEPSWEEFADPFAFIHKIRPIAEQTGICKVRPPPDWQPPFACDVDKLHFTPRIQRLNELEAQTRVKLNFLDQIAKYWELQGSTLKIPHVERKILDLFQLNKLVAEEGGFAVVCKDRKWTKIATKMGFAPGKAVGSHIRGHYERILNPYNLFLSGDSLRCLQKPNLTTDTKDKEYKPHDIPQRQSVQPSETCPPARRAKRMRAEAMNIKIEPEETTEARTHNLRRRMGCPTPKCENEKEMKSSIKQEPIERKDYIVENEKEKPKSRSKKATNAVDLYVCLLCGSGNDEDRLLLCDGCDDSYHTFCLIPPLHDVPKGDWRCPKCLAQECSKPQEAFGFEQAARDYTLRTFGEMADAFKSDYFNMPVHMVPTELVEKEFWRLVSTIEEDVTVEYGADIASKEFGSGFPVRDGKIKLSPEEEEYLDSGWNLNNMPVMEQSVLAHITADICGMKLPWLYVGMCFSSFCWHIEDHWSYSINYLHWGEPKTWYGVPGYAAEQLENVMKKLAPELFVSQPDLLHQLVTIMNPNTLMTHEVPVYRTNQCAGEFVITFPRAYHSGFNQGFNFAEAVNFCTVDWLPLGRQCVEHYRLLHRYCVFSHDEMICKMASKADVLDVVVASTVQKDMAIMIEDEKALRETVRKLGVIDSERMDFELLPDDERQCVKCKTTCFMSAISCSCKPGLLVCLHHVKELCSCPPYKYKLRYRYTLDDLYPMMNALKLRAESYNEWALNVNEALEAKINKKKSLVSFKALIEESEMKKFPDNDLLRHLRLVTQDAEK
Summary of the method: as §1

KDM7 (PHF8) = target: T4, KDM7 (PHF8) (Homo sapiens, UniProt Q9UPP1); test: Histone lysine demethylase AlphaLISA assay, KDM7; details: read-out: PHF8 HDME Inhibition IC50
T4 construct: KDM7 (PHF8); BRIC; 1-1322; Bac
T4 sequence (Q9UPP1 37-440 limits assumed): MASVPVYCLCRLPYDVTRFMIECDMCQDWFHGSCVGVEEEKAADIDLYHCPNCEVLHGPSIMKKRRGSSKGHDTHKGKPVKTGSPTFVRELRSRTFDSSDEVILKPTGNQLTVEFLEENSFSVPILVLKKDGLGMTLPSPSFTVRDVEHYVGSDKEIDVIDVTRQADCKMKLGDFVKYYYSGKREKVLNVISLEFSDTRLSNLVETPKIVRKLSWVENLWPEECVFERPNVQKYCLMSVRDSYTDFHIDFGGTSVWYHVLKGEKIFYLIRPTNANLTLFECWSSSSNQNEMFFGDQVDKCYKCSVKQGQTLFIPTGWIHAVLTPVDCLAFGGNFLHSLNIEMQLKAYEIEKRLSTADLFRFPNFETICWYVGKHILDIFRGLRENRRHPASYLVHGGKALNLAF
Summary of the method: as §1

IC50 (KDM3A (JMJD1A)) [nM] | IC50 (KDM5C (JARID1C)) [nM] | IC50 (KDM5B (PLU-1)) [nM] | IC50 (KDM7 (PHF8)) [nM] | SMILES
> 2500 | < 250 | < 250 | > 2500 | CN1CCN(C(=O)CNCc2cc(/C=N/C3CC3)ccn2)CC1 [Compound 54, 2-[({4-[N-cyclopropyl-carboximidoyl]-pyridin-2-yl}methyl)amino]-1-(4-methylpiperazin-1-yl)ethan-1-one]
> 2500 | 250 to 2500 | < 250 | 250 to 2500 | O=C(CNCc1cc(/C=N/C2CC2)ccn1)N1CCC(Cc2ccccc2)CC1 [Compound 55, 1-(4-benzylpiperidin-1-yl)-2-[({4-[N-cyclopropyl-carboximidoyl]-pyridin-2-yl}methyl)amino]-ethan-1-one]
> 2500 | 250 to 2500 | 250 to 2500 | 250 to 2500 | C#CCN(C)C(=O)CNCc1cc(/C=N/C2CC2)ccn1 [Compound 56, 2-[({4-[N-cyclopropyl-carboximidoyl]-pyridin-2-yl}methyl)amino]-N-methyl-N-(prop-2-yn-1-yl)acetamide]
> 2500 | < 250 | < 250 | > 2500 | CCN(CC)C(=O)CNCc1cc(/C=N/CCC2CCCCC2)ccn1 [Compound 57, 2-[({4-[[(2-cyclohexylethyl)imino]-methyl]pyridin-2-yl}methyl)amino]-N,N-diethylacetamide]
> 2500 | < 250 | < 250 | > 2500 | CCCCCCCC/N=C/c1ccnc(CNCC(=O)N(CC)CC)c1 [Compound 58, N,N-diethyl-2-[({4-[(octylimino)methyl]-pyridin-2-yl}methyl)amino]-acetamide]
> 2500 | < 250 | < 250 | 250 to 2500 | CCN(CC)CCCCNCc1cc(/C=N/CCOC)ccn1 [Compound 60, [4-(diethylamino)butyl]-({4-[[(2-methoxyethyl)imino]-methyl]pyridin-2-yl}methyl)amine]
> 2500 | < 250 | < 250 | > 2500 | CCN(CC)CCCCNCc1cc(/C=N/CCO)ccn1 [Compound 61, 2-[{[2-({[4-(diethylamino)-butyl]amino}-methyl)pyridin-4-yl]methylidene}-amino]ethan-1-ol]
> 2500 | < 250 | < 250 | > 2500 | CCN(CC)CCCCNCc1cc(/C=N/CC(F)(F)C(F)(F)F)ccn1 [Compound 62, {[2-({[4-(diethylamino)-butyl]amino}methyl)pyridin-4-yl]methylidene} (2,2,3,3,3-pentafluoropropyl)-amine]
> 2500 | > 2500 | < 250 | > 2500 | CON=Cc1ccnc(CNCCCN(C)C)c1 [Compound 64, [3-(dimethylamino)-propyl]({4-[(methoxyimino)-methyl]pyridin-2-yl}methyl)amine]
> 2500 | < 250 | < 250 | > 2500 | CCN(CC)CCCCNCc1cc(C2NCCN2C)ccn1 (stereo not drawn) [Compound 65, [4-(diethylamino)-butyl]({[4-(1-methylimidazolidin-2-yl)pyridin-2-yl]methyl})amine]
> 2500 | < 250 | < 250 | 250 to 2500 | CCN(CCN(C)C)C(=O)CNCc1cc(/C=N/CCO)ccn1 [Compound 66]
> 2500 | < 250 | < 250 | > 2500 | CCN(CC)CCCCNCc1cc(/C=N\CCC2CCCCC2)ccn1 [Compound 67, (2-cyclohexylethyl)-({[2-({[4-(diethylamino)-butyl]amino}methyl)pyridin-4-yl]methylidene})-amine]
> 2500 | < 250 | < 250 | > 2500 | CN(C)C/C=C/CNCc1cc(C=O)ccn1 [Compound 98, 2-({[(2E)-4-(dimethylamino)but-2-en-1-yl]amino}-methyl)pyridine-4-carbaldehyde]
> 2500 | < 250 | < 250 | > 2500 | CN(C)C/C=C\CNCc1cc(C=O)ccn1 [Compound 99, 2-({[(2Z)-4-(dimethylamino)-but-2-en-1-yl]amino}methyl)-pyridine-4-carbaldehyde]
> 2500 | < 250 | < 250 | > 2500 | CN1CCC(CNCc2cc(C=O)ccn2)CC1 [Compound 100, 2-({[(1-methyl-piperidin-4-yl)methyl]amino}-methyl)pyridine-4-carbaldehyde]
> 2500 | < 250 | < 250 | 250 to 2500 | CCN(CCN(C)C)C(=O)CNCc1cc(C=O)ccn1 [Compound 101]
> 2500 | < 250 | < 250 | > 2500 | O=Cc1ccnc(CNCC(=O)N2CCC[C@@H]2CN2CCCC2)c1 [Compound 102, 2-[({2-oxo-2-[(2R)-2-(pyrrolidin-1-ylmethyl)pyrrolidin-1-yl]ethyl}amino)-methyl]pyridine-4-carbaldehyde]
> 2500 | < 250 | 250 to 2500 | > 2500 | CN1CCN(C(=O)CNCc2cc(C=O)ccn2)CC1 [Compound 103, 2-({[2-(4-methylpiperazin-1-yl)-2-oxoethyl]-amino}methyl)-pyridine-4-carbaldehyde]
> 2500 | < 250 | < 250 | 250 to 2500 | CCN1CCCC1CNC(=O)CNCc1cc(C=O)ccn1 (stereo not drawn) [Compound 104, N-[(1-ethylpyrrolidin-2-yl)methyl]-2-{[(4-formylpyridin-2-yl)methyl]amino}-acetamide]
> 2500 | > 2500 | < 250 | 250 to 2500 | O=Cc1ccnc(CNCC(=O)N2CCC(Cc3ccccc3)CC2)c1 [Compound 106, 2-({[2-(4-benzylpiperidin-1-yl)-2-oxoethyl]-amino}methyl)-pyridine-4-carbaldehyde]
> 2500 | < 250 | < 250 | > 2500 | CCN(CC)CCCCNCc1cc(C=O)ccn1 [Compound 107, 2-({[4-(diethylamino)-butyl]amino}-methyl)pyridine-4-carbaldehyde]
